The source made the active and inactive calls.
Legend:
[1] = target: Intestinal-type alkaline phosphatase (Mus musculus, UniProt P24822); assay: PubChem AID 488785; type: functional
[2] = target: T1, Alkaline phosphatase, tissue-nonspecific isozyme (Homo sapiens, UniProt P05186); assay: TNAP enzyme inhibition by screening hits, dose response, selectivity assay for mouse IAP inhibitor project, biochemical, human TNAP, uHTS hits (AID 488906); type: functional
T1 sequence (P05186 whole entry): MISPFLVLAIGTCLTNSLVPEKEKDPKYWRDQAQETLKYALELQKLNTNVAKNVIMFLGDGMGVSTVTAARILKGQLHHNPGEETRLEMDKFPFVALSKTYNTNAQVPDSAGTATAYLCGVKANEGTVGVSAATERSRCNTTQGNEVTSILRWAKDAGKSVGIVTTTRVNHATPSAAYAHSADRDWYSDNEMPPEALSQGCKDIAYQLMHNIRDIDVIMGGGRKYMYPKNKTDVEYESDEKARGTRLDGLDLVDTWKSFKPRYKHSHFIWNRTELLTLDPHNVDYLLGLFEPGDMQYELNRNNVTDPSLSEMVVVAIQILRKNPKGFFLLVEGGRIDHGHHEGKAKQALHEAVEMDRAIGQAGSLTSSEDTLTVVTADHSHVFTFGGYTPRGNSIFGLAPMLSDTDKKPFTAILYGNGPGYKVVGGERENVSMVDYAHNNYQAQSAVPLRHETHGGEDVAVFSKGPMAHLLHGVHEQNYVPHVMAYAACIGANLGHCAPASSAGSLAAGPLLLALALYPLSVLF

[3] = target: Intestinal-type alkaline phosphatase (Homo sapiens, UniProt P09923); assay: inhibition of human intestinal alkaline phosphatase – biochemical, dose response (AID 488876); type: functional
[4] = target: T2, Voltage-gated N-type calcium channel alpha-1B subunit/Amyloid beta A4 precursor protein-binding family A member 1 (Homo sapiens, UniProt Q00975+Q02410); type: protein assay
[5] = target: T3, Peroxisome proliferator-activated receptor gamma/Nuclear receptor coactivator 3 (Homo sapiens, UniProt P37231); type: functional
[6] = target: T4, Peroxisome proliferator-activated receptor gamma/Nuclear receptor coactivator 2 (Homo sapiens, UniProt P37231); type: functional
[7] = target: T2, Voltage-gated N-type calcium channel alpha-1B subunit/Amyloid beta A4 precursor protein-binding family A member 1; type: protein assay; remark: listed apart in the source
[8] = target: T5, Peroxisome proliferator-activated receptor gamma/Nuclear receptor coactivator 1 (Homo sapiens, UniProt P37231); type: functional
[9] = target: DNA dC->dU-editing enzyme APOBEC-3G (Homo sapiens, UniProt Q9HC16); assay: Dose Response confirmation of small molecule APOBEC3G DNA Deaminase Inhibitors via a fluorescence-based single-stranded DNA deaminase assay. [Related pubchem assays (depositor defined):AID493012, AID493028]; type: functional
[10] = Shn3 3'UTR reporter inhibitors, dose response, cell-based, Clone20 osteoblasts, firefly luciferase, cherry-picked (AID 624132); type: functional;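 also: firefly luciferase luminescence from reporter carrying the Shn3 3'UTR in osteoblasts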
[11] = HepG2 cell cytotoxicity, dose response, cytotoxicity control for Shn3 inhibitor project, CellTiter-Glo, cherry-picked (AID 624134); type: functional, cell-based
HeLa = assay: Cytotoxicity counterscreen assay for transcriptional activators of heat shock protein 70 (Hsp70). [Related pubchem assays: 1203, 1252 ]; type: functional; settings: Homo sapiens;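 also: cells exposed to compound for 16 hours before readout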
[12] = target: T3, Peroxisome proliferator-activated receptor gamma/Nuclear receptor coactivator 3; assay: TR-FRET dose response biochemical High Throughput Screening assay for agonists of the steroid receptor coactivator 3 (SRC-3) recruitment by the peroxisome proliferator-activated receptor gamma (PPAR gamma): non-selective agonists. [Related pubchem assays: 1301 (Confirmation screen.), 1048 (Primary screen.)]; type: functional
[13] = target: T4, Peroxisome proliferator-activated receptor gamma/Nuclear receptor coactivator 2; assay: (§1) TR-FRET dose response biochemical High Throughput Screening assay for agonists of the steroid receptor coactivator 2 (SRC-2) recruitment by the peroxisome proliferator-activated receptor gamma (PPAR gamma): non-selective agonists. [Related pubchem assays: 1297, 1032 ]; type: functional
[14] = target: T5, Peroxisome proliferator-activated receptor gamma/Nuclear receptor coactivator 1; assay: as §1, with “1 (SRC-1)” for “2 (SRC-2)”, “assays (depositor defined):AID1300, AID1808, AID504735, AID631]” for “assays: 1297, 1032 ]”; type: protein assay
[15] = control 3'UTR Renilla luciferase suppression, dose response, counter-screen for Shn3 inhibitor project, cell-based, Clone20-Shn3RL, cherry-picked (AID 624133); type: functional
[16] = non-specific cell cytotoxicity, dose response, cytotoxicity control for PAX8 inhibitor project, plate reader, dry powder samples (AID 743021); type: functional, cell-based
Paired box protein Pax-8 = Paired box protein Pax-8 (Homo sapiens, UniProt Q06710); assay: inhibitors of PAX8-driven TPO luciferase reporter, dose response, RMG-I cells, cherry-pick (AID 687027); type: functional, cell-based;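 also: luciferase reporter driven by Pax8 target thyroperoxidase promoter measured by SteadyGlo luminescence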
[17] = target: Glyceraldehyde-3-phosphate dehydrogenase (Homo sapiens, UniProt P04406)
[18] = target: T1, Alkaline phosphatase, tissue-nonspecific isozyme; assay: human TNAP enzyme inhibitors, SAR follow-up, biochemical, luminescent, dose response (AID 1056)
[19] = target: Alkaline phosphatase, placental type (Homo sapiens, UniProt P05187); assay: PLAP enzyme inhibitors, confirmation, biochemical, luminescence (AID 1512); type: functional
[20] = test system: Streptococcus sp. 'group A'; assay: growth inhibition of control SK(-) GAS strain, dose response, counter-screen for streptokinase expression inhibitor project, luminescence, kanamycin, BacTiterGlo, confirmation (AID 1900); type: functional, organism-based
Streptococcus = assay: Group A Streptococcus viability loss, dose response, counter-screen for streptokinase expression inhibitor project, luminescence, BacTiterGlo (AID 1915); type: functional, organism-based;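 also: potency for reduction of bacterial viability or growth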
Streptokinase A = target: T6, Streptokinase A (Streptococcus pyogenes serotype M1, UniProt P10520); assay: S. pyogenes streptokinase expression inhibitors, potency, dose response, plasminogen activation absorbance, OD405 (AID 1914); type: functional, Streptococcus pyogenes M1 GAS;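 also: secreted streptokinase activity via plasminogen activation per viability signal from cell pellet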
T6 sequence (P10520 whole entry): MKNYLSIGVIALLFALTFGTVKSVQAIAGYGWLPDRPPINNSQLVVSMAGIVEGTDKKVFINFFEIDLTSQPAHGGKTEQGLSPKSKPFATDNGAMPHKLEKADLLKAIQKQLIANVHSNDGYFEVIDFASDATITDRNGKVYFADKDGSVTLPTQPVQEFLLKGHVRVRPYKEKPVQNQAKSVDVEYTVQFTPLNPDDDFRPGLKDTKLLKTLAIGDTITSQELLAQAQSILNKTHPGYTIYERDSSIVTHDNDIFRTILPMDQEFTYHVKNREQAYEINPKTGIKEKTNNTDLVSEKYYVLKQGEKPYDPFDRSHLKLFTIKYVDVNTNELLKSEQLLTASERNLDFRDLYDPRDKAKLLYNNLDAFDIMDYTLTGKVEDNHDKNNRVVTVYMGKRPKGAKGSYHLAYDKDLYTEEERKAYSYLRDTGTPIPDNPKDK

Sequence of Intestinal-type alkaline phosphatase (Mus musculus, UniProt P24822) (P24822 whole entry): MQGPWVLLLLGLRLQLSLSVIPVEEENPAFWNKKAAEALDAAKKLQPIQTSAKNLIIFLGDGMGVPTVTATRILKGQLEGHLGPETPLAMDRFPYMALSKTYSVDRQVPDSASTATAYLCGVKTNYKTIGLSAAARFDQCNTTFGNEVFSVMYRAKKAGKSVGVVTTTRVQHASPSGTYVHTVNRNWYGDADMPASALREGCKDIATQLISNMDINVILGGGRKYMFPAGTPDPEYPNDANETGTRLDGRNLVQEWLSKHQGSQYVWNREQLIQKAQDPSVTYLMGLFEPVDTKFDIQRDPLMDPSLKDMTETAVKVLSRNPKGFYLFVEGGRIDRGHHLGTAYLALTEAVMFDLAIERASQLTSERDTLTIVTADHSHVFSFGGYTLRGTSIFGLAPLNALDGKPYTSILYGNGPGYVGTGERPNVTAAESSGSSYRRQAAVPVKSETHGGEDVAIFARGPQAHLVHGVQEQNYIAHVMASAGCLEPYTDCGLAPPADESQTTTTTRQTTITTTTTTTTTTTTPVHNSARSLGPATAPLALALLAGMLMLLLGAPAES
Sequence of Intestinal-type alkaline phosphatase (Homo sapiens, UniProt P09923) (P09923 whole entry): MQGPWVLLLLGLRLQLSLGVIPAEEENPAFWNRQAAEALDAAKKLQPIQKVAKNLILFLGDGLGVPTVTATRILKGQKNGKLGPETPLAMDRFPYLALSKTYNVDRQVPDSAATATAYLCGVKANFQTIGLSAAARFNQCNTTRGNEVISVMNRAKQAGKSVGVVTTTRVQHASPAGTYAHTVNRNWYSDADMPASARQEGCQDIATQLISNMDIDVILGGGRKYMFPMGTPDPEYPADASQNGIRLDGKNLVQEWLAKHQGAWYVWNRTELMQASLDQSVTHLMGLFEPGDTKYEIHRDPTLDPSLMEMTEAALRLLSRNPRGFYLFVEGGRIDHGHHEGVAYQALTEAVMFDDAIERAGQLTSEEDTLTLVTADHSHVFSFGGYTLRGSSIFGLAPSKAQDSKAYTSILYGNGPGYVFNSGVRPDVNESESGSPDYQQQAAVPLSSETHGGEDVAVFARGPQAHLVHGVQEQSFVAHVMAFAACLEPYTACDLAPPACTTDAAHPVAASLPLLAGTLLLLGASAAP
T4 sequence (P37231 whole entry): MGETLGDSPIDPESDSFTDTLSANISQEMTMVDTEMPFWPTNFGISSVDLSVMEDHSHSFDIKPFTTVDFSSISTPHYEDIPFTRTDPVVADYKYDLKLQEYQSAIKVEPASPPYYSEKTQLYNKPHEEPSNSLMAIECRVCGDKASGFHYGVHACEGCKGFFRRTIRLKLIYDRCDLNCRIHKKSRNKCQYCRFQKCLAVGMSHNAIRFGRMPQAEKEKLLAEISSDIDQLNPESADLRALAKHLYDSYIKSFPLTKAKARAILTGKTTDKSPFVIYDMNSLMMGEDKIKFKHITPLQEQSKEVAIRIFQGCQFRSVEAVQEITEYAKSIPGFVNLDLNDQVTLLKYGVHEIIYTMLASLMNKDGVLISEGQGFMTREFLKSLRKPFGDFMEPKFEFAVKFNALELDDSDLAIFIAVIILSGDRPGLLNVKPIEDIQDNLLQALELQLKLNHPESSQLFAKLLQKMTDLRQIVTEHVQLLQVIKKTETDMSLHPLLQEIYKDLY
T4 sequence (Q15596 whole entry, further chain): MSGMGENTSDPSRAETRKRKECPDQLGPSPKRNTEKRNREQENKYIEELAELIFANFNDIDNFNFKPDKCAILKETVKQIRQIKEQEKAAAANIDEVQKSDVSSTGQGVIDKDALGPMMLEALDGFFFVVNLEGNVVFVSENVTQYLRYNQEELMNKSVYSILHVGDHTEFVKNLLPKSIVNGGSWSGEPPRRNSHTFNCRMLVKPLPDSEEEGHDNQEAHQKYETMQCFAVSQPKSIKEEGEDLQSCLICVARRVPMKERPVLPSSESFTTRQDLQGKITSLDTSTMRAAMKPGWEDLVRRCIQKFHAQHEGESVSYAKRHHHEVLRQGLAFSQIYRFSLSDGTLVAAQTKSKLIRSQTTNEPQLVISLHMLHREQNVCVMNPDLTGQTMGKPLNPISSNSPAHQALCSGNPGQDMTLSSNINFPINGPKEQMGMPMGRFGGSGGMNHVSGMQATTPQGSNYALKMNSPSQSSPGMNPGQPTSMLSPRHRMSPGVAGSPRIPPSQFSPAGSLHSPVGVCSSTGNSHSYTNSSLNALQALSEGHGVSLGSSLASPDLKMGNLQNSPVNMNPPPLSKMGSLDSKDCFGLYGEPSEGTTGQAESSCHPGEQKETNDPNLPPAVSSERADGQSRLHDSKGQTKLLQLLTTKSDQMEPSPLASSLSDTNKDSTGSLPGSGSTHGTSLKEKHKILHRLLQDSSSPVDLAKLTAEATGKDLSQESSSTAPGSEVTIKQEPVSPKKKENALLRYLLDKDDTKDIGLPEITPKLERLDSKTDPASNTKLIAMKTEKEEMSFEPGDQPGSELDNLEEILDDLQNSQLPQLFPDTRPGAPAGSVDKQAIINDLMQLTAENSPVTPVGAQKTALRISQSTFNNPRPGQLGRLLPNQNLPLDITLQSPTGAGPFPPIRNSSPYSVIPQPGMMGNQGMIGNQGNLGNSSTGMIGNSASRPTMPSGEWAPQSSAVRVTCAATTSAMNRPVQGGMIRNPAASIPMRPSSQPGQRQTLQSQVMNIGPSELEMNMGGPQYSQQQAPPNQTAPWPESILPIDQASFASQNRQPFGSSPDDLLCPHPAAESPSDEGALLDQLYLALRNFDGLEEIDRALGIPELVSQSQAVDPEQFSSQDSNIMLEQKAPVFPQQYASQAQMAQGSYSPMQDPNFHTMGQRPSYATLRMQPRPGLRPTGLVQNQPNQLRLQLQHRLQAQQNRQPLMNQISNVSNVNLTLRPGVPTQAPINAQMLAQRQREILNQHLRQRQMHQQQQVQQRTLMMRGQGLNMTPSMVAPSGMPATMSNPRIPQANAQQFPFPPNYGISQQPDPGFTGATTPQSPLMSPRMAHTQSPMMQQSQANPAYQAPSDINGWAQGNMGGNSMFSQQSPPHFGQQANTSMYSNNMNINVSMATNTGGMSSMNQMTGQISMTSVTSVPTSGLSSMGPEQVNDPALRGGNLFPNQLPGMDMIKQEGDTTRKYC
T3 sequence (P37231 whole entry): as the sequence (P37231 whole entry) above
T3 sequence (Q9Y6Q9 whole entry, further chain): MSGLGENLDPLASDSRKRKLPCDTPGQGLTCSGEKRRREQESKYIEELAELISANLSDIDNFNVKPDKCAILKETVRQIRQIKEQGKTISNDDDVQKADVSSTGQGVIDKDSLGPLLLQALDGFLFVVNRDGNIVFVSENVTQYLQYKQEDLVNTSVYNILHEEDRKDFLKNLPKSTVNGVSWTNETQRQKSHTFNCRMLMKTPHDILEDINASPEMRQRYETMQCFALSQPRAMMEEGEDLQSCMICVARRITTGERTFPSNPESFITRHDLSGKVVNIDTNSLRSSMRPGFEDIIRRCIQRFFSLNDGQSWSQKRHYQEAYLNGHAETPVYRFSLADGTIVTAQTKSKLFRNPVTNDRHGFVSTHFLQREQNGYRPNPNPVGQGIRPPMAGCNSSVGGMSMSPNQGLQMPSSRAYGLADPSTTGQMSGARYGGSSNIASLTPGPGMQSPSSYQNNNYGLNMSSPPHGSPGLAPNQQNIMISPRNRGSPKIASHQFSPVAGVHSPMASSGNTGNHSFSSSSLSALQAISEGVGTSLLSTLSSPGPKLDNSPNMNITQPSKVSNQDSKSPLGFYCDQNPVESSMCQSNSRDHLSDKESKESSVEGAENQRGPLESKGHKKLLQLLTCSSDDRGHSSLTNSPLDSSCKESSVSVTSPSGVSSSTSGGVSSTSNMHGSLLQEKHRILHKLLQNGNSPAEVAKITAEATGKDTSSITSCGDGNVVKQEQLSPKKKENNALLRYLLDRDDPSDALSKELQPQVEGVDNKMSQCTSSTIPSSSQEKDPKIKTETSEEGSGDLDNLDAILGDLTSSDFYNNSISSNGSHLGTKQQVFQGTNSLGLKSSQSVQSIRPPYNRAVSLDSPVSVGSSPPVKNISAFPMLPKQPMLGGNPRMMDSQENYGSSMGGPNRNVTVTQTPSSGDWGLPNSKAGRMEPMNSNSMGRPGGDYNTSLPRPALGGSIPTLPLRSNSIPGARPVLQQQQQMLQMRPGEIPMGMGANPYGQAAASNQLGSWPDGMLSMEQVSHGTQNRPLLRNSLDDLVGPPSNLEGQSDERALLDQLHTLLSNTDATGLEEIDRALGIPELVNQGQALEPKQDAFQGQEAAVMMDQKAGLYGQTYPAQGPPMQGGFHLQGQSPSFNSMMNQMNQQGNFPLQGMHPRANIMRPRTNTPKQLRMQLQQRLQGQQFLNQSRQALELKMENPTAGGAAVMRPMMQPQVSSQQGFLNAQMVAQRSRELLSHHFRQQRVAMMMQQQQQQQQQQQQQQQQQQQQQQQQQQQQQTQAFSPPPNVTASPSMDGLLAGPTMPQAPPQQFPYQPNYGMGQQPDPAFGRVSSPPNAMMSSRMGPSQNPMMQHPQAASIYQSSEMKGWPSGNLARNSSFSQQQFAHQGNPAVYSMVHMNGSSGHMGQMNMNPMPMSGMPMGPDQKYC

What does the source list for `O=S(=O)(c1ccc2nc(O)oc2c1)N1CCCCC1`?
IC50 [1]: 1.67 µM (active); IC50 [2]: 36.5 µM (active); IC50 [3]: > 100 µM (inactive)

For `CCc1ccc(N2CSC3=C(C#N)C(c4cccs4)CC(=O)N3C2)cc1` (configuration not stated), which IC50 [4] is on record?
The IC50 was 13.1 µM (active).

What about the EC50 [5] of the same molecule?
Its EC50 is 77.8 µM (not active).

And the EC50 [6]?
The EC50 was 50.7 µM (not active).

What about the IC50 [7] of the same molecule?
Its IC50 is > 50 µM (inactive).

What about the EC50 [8] of the same molecule?
The EC50 was 63.3 µM (not active).

And the IC50 [9]?
The IC50 was 8.18 µM (active).

Which AC50 [10] does the source give for `O=c1c(Br)c(Br)cnn1-c1ccccc1` here?
Its AC50 is 1.82 µM (active).

And the AC50 [11]?
Its AC50 is 25.4 µM (active).

What about the CC50 (HeLa) of the same molecule?
Its CC50 is > 11 µM (not active).

And the EC50 [12]?
The EC50 was > 79.4 µM (not active).

What about the EC50 [13] of the same molecule?
Its EC50 is > 79.4 µM (not active).

And the EC50 [14]?
The EC50 was > 79.4 µM (inactive).

What about the AC50 [15] of the same molecule?
The AC50 was 2.75 µM (active).

And the AC50 [16]?
The AC50 was 14.8 µM (active).

What about the AC50 (Paired box protein Pax-8) of the same molecule?
Its AC50 is 8.26 µM (active).

For `CC1(C)CC(=O)c2c(/C=C/c3ccccc3)n[nH]c2C1`, which IC50 [17] is on record?
Its IC50 is > 100 µM (not active).

What about the IC50 [18] of the same molecule?
Its IC50 is > 100 µM (inactive).

And the IC50 [19]?
The IC50 was > 100 µM (inactive).

For `Cc1ccc(CN=C(S)NC2CCC(C(C)(C)C)CC2)cc1` (configuration not stated), which EC50 [20] is on record?
The EC50 was 5.46 µM (active).

And the IC50 [1]?
The IC50 was 2.35 µM (active).

What about the EC50 (Streptococcus) of the same molecule?
Its EC50 is > 150 µM (not active).

What about the EC50 (Streptokinase A) of the same molecule?
The EC50 was 13.1 µM (active).

What about the IC50 [2] of the same molecule?
The IC50 was 48 µM (active).

What about the IC50 [3] of the same molecule?
The IC50 was > 100 µM (inactive).

Source: ChEMBL document CHEMBL1201862, “PubChem BioAssay data set” (2004)
